# Measured values reported in the SangsterLogP compilation.
row,Structure (SMILES),logP
1,CN(C)c1ccc(N=C=S)cc1,3.96
2,COc1ccc(N=C=S)cc1,3.58
3,Oc1cccc(N=C=S)c1,3.23
4,CC(C)CN=C=S,2.82
5,CCC(C)N=C=S (stereo not drawn),2.81
6,COc1cccc(N=C=S)c1,3.68
7,S=C=Nc1ccc(I)cc1,4.22
8,O=C(O)c1ccc(N=C=S)cc1,2.44
9,O=C(O)c1cccc(N=C=S)c1,2.4
10,N#Cc1ccc(N=C=S)cc1,2.65
11,Cc1ccc(N=C=S)cc1,3.9
12,S=C=Nc1cccc(Br)c1,4.12
13,CCCCN=C=S,2.92
14,O=[N+]([O-])c1ccc(N=C=S)cc1,3.55
15,S=C=Nc1cccc(Cl)c1,3.36
16,N#Cc1cccc(N=C=S)c1,3.13
17,S=C=Nc1ccc(Cl)cc1,3.91
18,CN=C=S,0.94
